Data on 37 molecules can be found in patent US10703755B2, “Substituted purine derivative” (SUMITOMO DAINIPPON PHARMA CO., LTD., priority 2016, dated 2020).

In this assay the target is human TLR7 (Homo sapiens (Human), UniProt Q9NYK1). Nature of the assay: Test for evaluating the inhibition of the activation of human TLR7 (SEAP reporter, TLR7/NF-κB/SEAPorter HEK293 cell). It counts as cell-based. The conditions noted are these: R-848 200 nmol/L; for inhibitory effect against TLR7 in the test for evaluating inhibition of the activation of TLR7: SEAP activity, result in words; for IC50: SEAP reporter. The method, then: As human TLR7 expressing cell line, HEK293 cell line was bought from IMGENEX Corporation (TLR7/NF-ηB/SEAPorter™ HEK293 cell), which is human embryonic kidney cell line and stably expresses full-length human TLR7 gene and secreted alkaline phosphatase (SEAP) reporter gene under the transcriptional control of an NE-ηB response element. The TLR7/NF-ηB/SEAPorter™ HEK293 cell was cultivated with DMEM containing 10% fetal bovine serum (FBS) and 10 μg/mL blasticidin S at 37° C. in the presence of 5% CO2. The TLR7/NF-ηB/SEAPorter™ HEK293 cell was seeded into 96-well microtiter plate at 5×10^4 cell/90 μL/well, and the place was cultivated at 37° C. in a CO2 incubator overnight.
Each compound prepared in the Examples was evaluated by Test 1.

human TLR7, sequence (Q9NYK1 27-1049): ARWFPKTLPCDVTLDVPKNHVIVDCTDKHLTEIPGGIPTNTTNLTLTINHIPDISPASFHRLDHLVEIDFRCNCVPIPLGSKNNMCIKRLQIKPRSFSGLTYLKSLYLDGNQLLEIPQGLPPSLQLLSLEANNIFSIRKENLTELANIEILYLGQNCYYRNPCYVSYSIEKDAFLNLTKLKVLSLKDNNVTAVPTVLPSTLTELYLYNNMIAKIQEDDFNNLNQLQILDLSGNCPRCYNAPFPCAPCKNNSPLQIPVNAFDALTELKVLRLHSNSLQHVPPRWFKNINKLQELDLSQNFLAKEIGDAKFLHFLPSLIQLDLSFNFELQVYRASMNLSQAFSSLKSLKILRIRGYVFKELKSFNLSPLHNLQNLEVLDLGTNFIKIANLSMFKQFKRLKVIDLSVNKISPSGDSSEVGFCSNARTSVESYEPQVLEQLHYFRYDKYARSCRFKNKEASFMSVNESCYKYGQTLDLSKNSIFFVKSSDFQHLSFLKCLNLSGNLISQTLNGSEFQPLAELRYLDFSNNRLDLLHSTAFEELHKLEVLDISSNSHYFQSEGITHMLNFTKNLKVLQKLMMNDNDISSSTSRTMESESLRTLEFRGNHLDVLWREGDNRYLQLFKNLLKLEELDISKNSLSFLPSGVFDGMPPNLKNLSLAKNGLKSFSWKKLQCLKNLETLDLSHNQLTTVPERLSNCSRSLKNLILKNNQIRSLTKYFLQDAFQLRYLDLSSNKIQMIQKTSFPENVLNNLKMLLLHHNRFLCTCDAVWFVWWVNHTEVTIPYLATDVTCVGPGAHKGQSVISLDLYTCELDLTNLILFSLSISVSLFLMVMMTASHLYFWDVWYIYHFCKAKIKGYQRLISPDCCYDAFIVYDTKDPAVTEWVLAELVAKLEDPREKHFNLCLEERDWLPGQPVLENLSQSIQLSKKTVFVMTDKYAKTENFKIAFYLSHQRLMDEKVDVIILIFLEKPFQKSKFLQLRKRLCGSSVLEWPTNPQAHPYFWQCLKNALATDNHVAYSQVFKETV

On to `CCOc1nc(N)c2nc(-c3cncc(F)c3)n(Cc3ccc(CN4C[C@@H]5C[C@H]4CO5)cc3)c2n1` [Example 96], for which the “inhibitory effect against TLR7 in the test for evaluating inhibition of the activation of TLR7” value (shortened to “inhibitory effect against TLR7”) is on record as “potent inhibitory effect against TLR7” and the IC50 came out at 80 nM.
In the case of `CCOc1nc(N)c2nc(-c3cncc(F)c3)n(Cc3ccc(CN4CCOCC4)cc3)c2n1` [Example 97], the IC50 was 100 nM. This counts as sub-micromolar.
For the molecule `CCOc1nc(N)c2nc(-c3cncc(F)c3)n(Cc3ccc(CN4CCCCC4)cc3)c2n1` [Example 98], the “inhibitory effect against TLR7” value is “potent inhibitory effect against TLR7” and it took 71 nM to reach half-maximal inhibition (IC50).
As to `CCOc1nc(N)c2nc(-c3cncc(F)c3)n(Cc3ccc(CN4CCC(F)(F)CC4)cc3)c2n1` [Example 99], 146 nM corresponded to half-maximal inhibition (IC50). That is a sub-micromolar value.
For the molecule `CCOc1nc(N)c2nc(-c3cncc(F)c3)n(Cc3ccc(CN4CCC4)cc3)c2n1` [Example 100], the “inhibitory effect against TLR7” value was “potent inhibitory effect against TLR7” and the IC50 turned out to be 96 nM.
The matching figures for `CCOc1nc(N)c2nc(-c3cncc(F)c3)n(Cc3ccc(CN4CC(F)(F)C4)cc3)c2n1` [Example 101]: “potent inhibitory effect against TLR7” and 56 nM.
In turn, `CCOc1nc(N)c2nc(-c3cncc(F)c3)n(Cc3ccc(CN(C)CC(F)F)cc3)c2n1` [Example 102] displayed an IC50 of 810 nM.
The same measure, in the same setting: the figure for `CCOc1nc(N)c2nc(-c3cncc(F)c3)n(Cc3ccc(CN4CC(C#N)C4)cc3)c2n1` [Example 103] is 1600 nM; for `CCOc1nc(N)c2nc(-c3cncc(F)c3)n(Cc3ccc(CN4CCCC4)cc3)c2n1` [Example 104] it is 760 nM.
Regarding `CCOc1nc(N)c2nc(-c3cncc(F)c3)n(Cc3ccc(CN4CC(C(F)F)C4)cc3)c2n1` [Example 105], the “inhibitory effect against TLR7” value was “potent inhibitory effect against TLR7” and the IC50 was 59 nM.
Turning to `CCOc1nc(N)c2nc(-c3cncc(F)c3)n(Cc3ccc(CN4CC(C)(O)C4)cc3)c2n1` [Example 106], the “inhibitory effect against TLR7” value is recorded as “potent inhibitory effect against TLR7” and the IC50 stood at 62 nM.
Consider `COc1nc(C)c2nc(-c3cncc(F)c3)n(Cc3ccc(CN4C[C@@H]5C[C@H]4CN5C)cc3)c2n1` [Example 107, 8-(5-fluoropyridin-3-yl)-2-methoxy-6-methyl-9-(4-{[(1S,4S)-5-methyl-2,5-diazabicyclo[2.2.1]hept-2-yl]methyl}benzyl)-9H-purine], for which the “inhibitory effect against TLR7” value is “potent inhibitory effect against TLR7” and half-maximal inhibition (IC50) was put at 27 nM.
Taken in the same sequence, the figures for `CCOc1nc(C)c2nc(-c3cncc(F)c3)n(Cc3ccc(CN4C[C@@H]5C[C@H]4CN5C)cc3)c2n1` [Example 109, 2-ethoxy-8-(5-fluoropyridin-3-yl)-6-methyl-9-(4-{[(1S,4S)-5-methyl-2,5-diazabicyclo[2.2.1]hept-2-yl]methyl}benzyl)-9H-purine] were “potent inhibitory effect against TLR7” and 10 nM.
As for `CCOc1nc(C)c2nc(-c3cncc(F)c3)n(Cc3ccc(CN4C[C@H]5C[C@@H]4CN5C)cc3)c2n1` [Example 110, 2-ethoxy-8-(5-fluoropyridin-3-yl)-6-methyl-9-(4-{[(1R,4R)-5-methyl-2,5-diazabicyclo[2.2.1]hept-2-yl]methyl}benzyl)-9H-purine], the “inhibitory effect against TLR7” value is “potent inhibitory effect against TLR7” and the midpoint of inhibition, the IC50, lay at 5 nM.
Molecule `CCCCOc1nc(C)c2nc(-c3cncc(F)c3)n(Cc3ccc(CN4CCOCC4)cc3)c2n1` [Example 112] had an IC50 of 100 nM.
Still for that read-out and setting: the figure for `COCCOc1nc(C)c2nc(-c3cncc(F)c3)n(Cc3ccc(CN4CCOCC4)cc3)c2n1` [Example 114] is 300 nM; for `COCCOc1nc(C)c2nc(-c3cncc(F)c3)n(Cc3ccc(CN4CCN(C)CC4)cc3)c2n1` [Example 115] it is 100 nM.
The same measure, in the same setting: the figure for `CCOc1nc(C)c2nc(-c3cncc(F)c3)n(Cc3ccc(CN4CC(C#N)C4)cc3)c2n1` [Example 116] is 160 nM; for `CCNc1nc(N)c2nc(-c3cncc(F)c3)n(Cc3ccc(CN(C)C)cc3)c2n1` [Example 117] it is 7000 nM.
On the same count and under the same terms, the figure for `CN(C)Cc1ccc(Cn2c(-c3cncc(F)c3)nc3c(N)nc(Cl)nc32)cc1` [Example 118] is 950 nM.
With `CCOc1nc(C)c2nc(-c3cncc(F)c3)n(Cc3ccc(CN4C[C@@H]5C[C@H]4CN5)cc3)c2n1` [Example 123, 9-{4-[(1S,4S)-2,5-Diazabicyclo[2.2.1]hept-2-ylmethyl]benzyl}-2-ethoxy-8-(5-fluoropyridin-3-yl)-6-methyl-9H-purine], the “inhibitory effect against TLR7” value is “potent inhibitory effect against TLR7” and the midpoint of inhibition, the IC50, lay at 33 nM.
Turning to `CCOc1nc(N)c2nc(-c3cncc(F)c3)n(Cc3ccc(CN4C[C@@H]5C[C@H]4CN5)cc3)c2n1` [Example 124], the half-maximal inhibitory concentration (IC50) turned out to be 220 nM.
Turning to `COc1nc(C)c2nc(-c3cncc(F)c3)n(Cc3ccc(CN4C[C@@H]5C[C@H]4CN5)cc3)c2n1` [Example 125], the “inhibitory effect against TLR7” value is “potent inhibitory effect against TLR7” and the IC50 was found to be 85 nM.
As for `CCOc1nc(N)c2nc(-c3cncc(F)c3)n(Cc3ccc(CN4C[C@@H]5C[C@H]4CN5C(C)=O)cc3)c2n1` [Example 126, 1-[(1S,4S)-5-(4-{[6-Amino-2-ethoxy-8-(5-fluoropyridin-3-yl)-9H-purin-9-yl]methyl}benzyl)-2,5-diazabicyclo[2.2.1]hept-2-yl]ethanone], the IC50 was found to be 150 nM.
For the molecule `CCOc1nc(N)c2nc(-c3cncc(F)c3)n(Cc3ccc(C4CCN(C)CC4)cc3)c2n1` [Example 127, 2-Ethoxy-8-(5-fluoropyridin-3-yl)-9-[4-(1-methylpiperidin-4-yl)benzyl]-9H-purine-6-amine], the “inhibitory effect against TLR7” value is “potent inhibitory effect against TLR7” and the IC50 came to 53 nM.
Taken in the same sequence, the figures for `CCOc1nc(N)c2nc(-c3cncc(F)c3)n(Cc3ccc(CN4C[C@@H]5C[C@H]4CN5CC)cc3)c2n1` [Example 128] were “potent inhibitory effect against TLR7” and 19 nM.
Consider `CCOc1nc(N)c2nc(-c3cncc(F)c3)n(Cc3ccc(CN4C[C@@H]5C[C@H]4CN5C4COC4)cc3)c2n1` [Example 129], for which the “inhibitory effect against TLR7” value is given as “potent inhibitory effect against TLR7” and inhibition was half-maximal at 71 nM (IC50).
The matching figures for `CCOc1nc(N)c2nc(-c3cncc(F)c3)n(Cc3ccc(CN4C[C@@H]5C[C@H]4CN5C4CC4)cc3)c2n1` [Example 130]: “potent inhibitory effect against TLR7” and 43 nM.
With `CCOc1nc(C)c2nc(-c3cncc(F)c3)n(Cc3ccc(CN4C[C@@H]5C[C@H]4CN5CC)cc3)c2n1` [Example 131, 2-ethoxy-9-(4-{[(1S,4S)-5-ethyl-2,5-diazabicyclo[2.2.1]hept-2-yl]methyl}benzyl)-8-(5-fluoropyridin-3-yl)-6-methyl-9H-purine], the “inhibitory effect against TLR7” value is “potent inhibitory effect against TLR7” and the IC50 turned out to be 7 nM.
As to `CCN1C[C@@H]2C[C@H]1CN2Cc1ccc(Cn2c(-c3cncc(F)c3)nc3c(C)nc(OC)nc32)cc1` [Example 132, 9-(4-{[(1S,4S)-5-ethyl-2,5-diazabicyclo[2.2.1]hept-2-yl]methyl}benzyl)-8-(5-fluoropyridin-3-yl)-2-methoxy-6-methyl-9H-purine], the “inhibitory effect against TLR7” value is “potent inhibitory effect against TLR7” and half-maximal inhibition (IC50) was put at 19 nM.
Taken in the same sequence, the figures for `CCCN1C[C@@H]2C[C@H]1CN2Cc1ccc(Cn2c(-c3cncc(F)c3)nc3c(C)nc(OC)nc32)cc1` [Example 133, 8-(5-fluoropyridin-3-yl)-2-methoxy-6-methyl-9-(4-{[(1S,4S)-5-propyl-2,5-diazabicyclo[2.2.1]hept-2-yl]methyl}benzyl)-9H-purine] were “potent inhibitory effect against TLR7” and 13 nM.
Consider `CCN1C[C@@H]2C[C@H]1CN2Cc1ccc(Cn2c(-c3cncc(F)c3)nc3c(N)nc(OC)nc32)cc1` [Example 134], for which the midpoint of inhibition, the IC50, lay at 170 nM.
For the molecule `CCOc1nc(N)c2nc(-c3cncc(F)c3)n(Cc3ccc(C4CCN(C5COC5)CC4)cc3)c2n1` [Example 135], the “inhibitory effect against TLR7” value was “potent inhibitory effect against TLR7” and inhibition was half-maximal at 85 nM (IC50).
As to `CCOc1nc(N)c2nc(-c3cncc(F)c3)n(Cc3ccc4c(c3)CN(C)C4)c2n1` [Example 137], half-maximal inhibition (IC50) was put at 840 nM. That is a sub-micromolar value.
For `CCOc1nc(C)c2nc(-c3cncc(F)c3)n(Cc3ccc(C4CCN(C)C4)cc3)c2n1` (stereo not drawn) [Example 138], the “inhibitory effect against TLR7” value is given as “potent inhibitory effect against TLR7” and half-maximal inhibition (IC50) was put at 49 nM.
For the molecule `CCOc1nc(N)c2nc(-c3cncc(F)c3)n(Cc3ccc(COCCN(C)C)cc3)c2n1` [Example 140, 9-(4-{[2-(Dimethylamino)ethoxy]methyl}benzyl)-2-ethoxy-8-(5-fluoropyridin-3-yl)-9H-purine-6-amine], it took 120 nM to reach half-maximal inhibition (IC50).
Still for that read-out and setting: the figure for `CCCCOc1nc(C)c2nc(-c3cncc(F)c3)n(Cc3ccccc3)c2n1` [Example 141, 9-Benzyl-2-butoxy-8-(5-fluoropyridin-3-yl)-6-methyl-9H-purine] is 3300 nM.
